For data set [1], the target named is T1, Coagulation factor X (Homo sapiens, UniProt P00742). The data set can be described thus: Inhibition of factor 10a (unknown origin).
Data set [2] concerns the target T1, Coagulation factor X. The data set can be described thus: Binding affinity to factor 10a (unknown origin) assessed as association rate constant by SPR assay. (In SPR one partner is held on a chip, and binding of the other changes the refractive index at the surface.)
In another data set the test system is Plasma. The data set can be described thus: Anticoagulant activity in plasma assessed as concentration required to double the activated partial thromboplastin time. Type of data set: ADME, cell-free.
The target of data set [3] is T1, Coagulation factor X. The data set can be described thus: Binding affinity to factor 10a (unknown origin) by SPR assay.
Data set [4] deals with T1, Coagulation factor X. In words: Binding affinity to factor 10a (unknown origin) assessed as dissociation rate constant by SPR assay.

Molecules are shown by their SMILES.

The values that follow come from ChEMBL document CHEMBL4602655, “Synthesis and biological evaluation of Isosteviol derivatives as FXa inhibitors” (Bioorg Med Chem Lett, 2020).

What is called IC50 is the point on the concentration scale where inhibition reaches its midpoint.

T1 sequence (P00742 41-179 limits assumed): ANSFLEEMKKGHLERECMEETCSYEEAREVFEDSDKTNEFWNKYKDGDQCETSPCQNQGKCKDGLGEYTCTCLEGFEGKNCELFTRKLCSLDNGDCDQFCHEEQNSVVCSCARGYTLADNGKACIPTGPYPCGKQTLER
T1 sequence (P00742 235-488 limits assumed): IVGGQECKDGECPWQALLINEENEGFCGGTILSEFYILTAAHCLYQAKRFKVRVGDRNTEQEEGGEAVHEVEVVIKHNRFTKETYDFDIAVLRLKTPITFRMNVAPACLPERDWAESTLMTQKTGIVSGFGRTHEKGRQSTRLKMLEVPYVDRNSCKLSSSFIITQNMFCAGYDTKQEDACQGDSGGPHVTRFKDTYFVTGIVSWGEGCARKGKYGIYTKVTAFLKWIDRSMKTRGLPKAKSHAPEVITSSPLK

The molecule `CCOC(=O)[C@]1(C)CCC[C@@]2(C)[C@@H]3CC[C@@]4(C)C[C@]3(CC[C@@H]21)C/C4=N\NC(=S)Nc1ccc(OC)cc1OC` came in with a 50% inhibitory concentration (IC50) against Coagulation factor X [1] of 33.6 µM.

Turning to `CCOC(=O)[C@]1(C)CCC[C@@]2(C)[C@@H]3CC[C@@]4(C)C[C@]3(CC[C@@H]21)C/C4=N\NC(=S)Nc1cccc2ccccc12`, at Coagulation factor X [1], half-maximal inhibition (IC50) required 0.955 µM.

In the case of `CCOC(=O)[C@]1(C)CCC[C@@]2(C)[C@@H]3CC[C@@]4(C)C[C@]3(CC[C@@H]21)C[C@H]4OCc1cn(-c2cc(C)cc(C)c2)nn1`, half-maximal inhibition against Coagulation factor X [1] (IC50) was put at 6.33 µM.

For the molecule `CCOC(=O)[C@]1(C)CCC[C@@]2(C)[C@@H]3CC[C@@]4(C)C[C@]3(CC[C@@H]21)C[C@H]4OCc1cn(-c2ccccc2C)nn1`, the IC50 at Coagulation factor X [1] is 34.5 µM. Against the preceding molecule, the IC50 is about 5.5-fold higher.

Consider `CCOC(=O)[C@]1(C)CCC[C@@]2(C)[C@@H]3CC[C@@]4(C)C[C@]3(CC[C@@H]21)C/C4=N\NC(=S)Nc1ccc(C)cc1`, for which the IC50 on Coagulation factor X [1] is 57.7 µM.

In the case of `CCOC(=O)[C@]1(C)CCC[C@@]2(C)[C@@H]3CC[C@@]4(C)C[C@]3(CC[C@@H]21)C[C@H]4OCc1cn(-c2cccc(C)c2)nn1`, the 50% inhibitory concentration (IC50) against Coagulation factor X [1] turned out to be 41.7 µM.

In the case of `CCOC(=O)[C@]1(C)CCC[C@@]2(C)[C@@H]3CC[C@@]4(C)C[C@]3(CC[C@@H]21)C/C4=N\NC(=S)Nc1ccc(F)cc1`, it took 27.5 µM to reach half-maximal inhibition at Coagulation factor X [1] (IC50).

As to `CCOC(=O)[C@]1(C)CCC[C@@]2(C)[C@@H]3CC[C@@]4(C)C[C@]3(CC[C@@H]21)C[C@H]4O`, at Coagulation factor X [1], the midpoint of inhibition, the IC50, lay at 12.7 µM. This IC50 is about 2.2-fold lower than that of the molecule before.

The molecule `CCOC(=O)[C@]1(C)CCC[C@@]2(C)[C@@H]3CC[C@@]4(C)C[C@]3(CC[C@@H]21)C[C@H]4OCc1cn(-c2ccc(C)cc2)nn1` displayed a 50% inhibitory concentration (IC50) against Coagulation factor X [1] of 5.53 µM.

At Coagulation factor X [1], `CCOC(=O)[C@]1(C)CCC[C@@]2(C)[C@@H]3CC[C@@]4(C)C[C@]3(CC[C@@H]21)C/C4=N\NC(=S)Nc1cccc(Cl)c1Cl` gave a half-maximal inhibitory concentration (IC50) of 7.73 µM. This IC50 and that of the molecule before are within 1.5-fold of each other.

As to `CCOC(=O)[C@]1(C)CCC[C@@]2(C)[C@@H]3CC[C@@]4(C)C[C@]3(CC[C@@H]21)C/C4=N\NC(=S)Nc1ccc(C(C)(C)C)cc1`, at Coagulation factor X [1], the concentration for half-maximal inhibition (IC50) amounted to 9.03 µM.

Molecule `CCOC(=O)[C@]1(C)CCC[C@@]2(C)[C@@H]3CC[C@@]4(C)C[C@]3(CC[C@@H]21)C[C@H]4OCc1cn(-c2cccc(Cl)c2)nn1` returned an IC50 against Coagulation factor X [1] of 17.7 µM.

For the molecule `CCOC(=O)[C@]1(C)CCC[C@@]2(C)[C@@H]3CC[C@@]4(C)C[C@]3(CC[C@@H]21)C/C4=N\NC(=S)Nc1ccc(Cl)cc1`, the Ka at Coagulation factor X [2] was found to be 1.93 ×10⁴ /M/s. For the same molecule, the 2aPTT in the data set on Plasma worked out at 9.31 µM. Also, the Kd was found to be 7.52 µM at Coagulation factor X [3] and 1.45 ×10⁻¹ /s on Coagulation factor X [4]. Moreover, half-maximal inhibition against Coagulation factor X [1] (IC50) was put at 0.153 µM.

At Coagulation factor X [1], `CCOC(=O)[C@]1(C)CCC[C@@]2(C)[C@@H]3CC[C@@]4(C)C[C@]3(CC[C@@H]21)C[C@H]4OCc1cn(-c2ccc(C(C)C)cc2)nn1` registered an IC50 of 20.3 µM.

Regarding `CCOC(=O)[C@]1(C)CCC[C@@]2(C)[C@@H]3CC[C@@]4(C)C[C@]3(CC[C@@H]21)C/C4=N\NC(=S)Nc1ccc(OC)cc1`, the midpoint of inhibition against Coagulation factor X [1], the IC50, lay at 6.65 µM.

On to `CCOC(=O)[C@]1(C)CCC[C@@]2(C)[C@@H]3CC[C@@]4(C)C[C@]3(CC[C@@H]21)C/C4=N\NC(=S)Nc1cccc(N(C)C)c1`, for which, on Coagulation factor X [1], half-maximal inhibition (IC50) was put at 29.6 µM. Compared with the last molecule, the IC50 is about 4.5-fold higher.

Consider `CCOC(=O)[C@]1(C)CCC[C@@]2(C)[C@@H]3CC[C@@]4(C)C[C@]3(CC[C@@H]21)C/C4=N\NC(=S)Nc1ccccc1Cl`, for which the Ka at Coagulation factor X [2] is 1.88 ×10⁴ /M/s. The Kd at Coagulation factor X [3] worked out at 9.98 µM; at Coagulation factor X [4], 1.87 ×10⁻¹ /s. For the same molecule, at Coagulation factor X [1], the midpoint of inhibition, the IC50, lay at 0.209 µM.

In turn, `CCOC(=O)[C@]1(C)CCC[C@@]2(C)[C@@H]3CC[C@@]4(C)C[C@]3(CC[C@@H]21)C/C4=N\NC(=S)Nc1cccc(C)c1` showed an IC50 against Coagulation factor X [1] of 3.76 µM. This lies in the single-digit micromolar range.

As for `CCOC(=O)[C@]1(C)CCC[C@@]2(C)[C@@H]3CC[C@@]4(C)C[C@]3(CC[C@@H]21)C/C4=N\NC(=S)Nc1ccccc1`, the IC50 against Coagulation factor X [1] was found to be 13.4 µM.

`C[C@@]12CC[C@@H]3[C@@](CC[C@H]4[C@@]3(C)CCC[C@@]4(C)C(=O)O)(CC1=O)C2` [ISOSTEVIOL] came in with an IC50 on Coagulation factor X [1] of 0.642 µM.

`CCOC(=O)[C@]1(C)CCC[C@@]2(C)[C@@H]3CC[C@@]4(C)C[C@]3(CC[C@@H]21)C/C4=N\NC(=S)Nc1ccc(C#N)cc1`: it took 13.6 µM to reach half-maximal inhibition against Coagulation factor X [1] (IC50).

Turning to `CCOC(=O)[C@]1(C)CCC[C@@]2(C)[C@@H]3CC[C@@]4(C)C[C@]3(CC[C@@H]21)C[C@H]4OCc1cn(-c2ccc(OC)cc2)nn1`, the half-maximal inhibitory concentration (IC50) against Coagulation factor X [1] is 19.3 µM.

On Coagulation factor X [1], `CCOC(=O)[C@]1(C)CCC[C@@]2(C)[C@@H]3CC[C@@]4(C)C[C@]3(CC[C@@H]21)C[C@H]4OCc1cn(-c2cccc3ccccc23)nn1` came in with an IC50 of 4.87 µM.

Take `CCOC(=O)[C@]1(C)CCC[C@@]2(C)[C@@H]3CC[C@@]4(C)C[C@]3(CC[C@@H]21)C[C@H]4OCc1cn(-c2ccc3c(c2)OCO3)nn1`: half-maximal inhibition against Coagulation factor X [1] (IC50) was put at 7.57 µM.

For `CCOC(=O)[C@]1(C)CCC[C@@]2(C)[C@@H]3CC[C@@]4(C)C[C@]3(CC[C@@H]21)C/C4=N\NC(=S)Nc1cccc(OC)c1`, the IC50 on Coagulation factor X [1] worked out at 18.4 µM.

`CCOC(=O)[C@]1(C)CCC[C@@]2(C)[C@@H]3CC[C@@]4(C)C[C@]3(CC[C@@H]21)C[C@H]4OCc1cn(Cc2ccccc2)nn1` came in with an IC50 on Coagulation factor X [1] of 29.4 µM. Compared with the last molecule, the IC50 is about 1.6-fold higher.

Molecule `CCOC(=O)[C@]1(C)CCC[C@@]2(C)[C@@H]3CC[C@@]4(C)C[C@]3(CC[C@@H]21)C/C4=N\NC(=S)Nc1ccc(Br)cc1` displayed a half-inhibitory concentration (IC50) against Coagulation factor X [1] of 8.77 µM.

Regarding `CCOC(=O)[C@]1(C)CCC[C@@]2(C)[C@@H]3CC[C@@]4(C)C[C@]3(CC[C@@H]21)CC4=O`, the midpoint of inhibition at Coagulation factor X [1], the IC50, lay at 0.786 µM.

`CCOC(=O)[C@]1(C)CCC[C@@]2(C)[C@@H]3CC[C@@]4(C)C[C@]3(CC[C@@H]21)C[C@H]4OCc1cn(-c2ccc(Br)cc2)nn1` came in with an IC50 against Coagulation factor X [1] of 3.34 µM. This IC50 lies about 4.2-fold higher than the previous one.

Regarding `CCOC(=O)[C@]1(C)CCC[C@@]2(C)[C@@H]3CC[C@@]4(C)C[C@]3(CC[C@@H]21)C[C@H]4OCc1cn(-c2ccc(Cl)cc2)nn1`, the half-inhibitory concentration (IC50) at Coagulation factor X [1] was 27.3 µM.

Consider `CCOC(=O)[C@]1(C)CCC[C@@]2(C)[C@@H]3CC[C@@]4(C)C[C@]3(CC[C@@H]21)C/C4=N\NC(=S)Nc1ccc(C(F)(F)F)cc1`, for which the IC50 on Coagulation factor X [1] amounted to 8.66 µM.

With `CCOC(=O)[C@]1(C)CCC[C@@]2(C)[C@@H]3CC[C@@]4(C)C[C@]3(CC[C@@H]21)C/C4=N\NC(=S)Nc1cccc(Cl)c1`, on Coagulation factor X [2], the Ka stood at 1.84 ×10⁴ /M/s. In the data set on Plasma, the 2aPTT was 17.12 µM. Moreover, the Kd is 8.44 µM at Coagulation factor X [3] and 1.56 ×10⁻¹ /s on Coagulation factor X [4]. For the same molecule, the 50% inhibitory concentration (IC50) against Coagulation factor X [1] is 0.196 µM.

`CCOC(=O)[C@]1(C)CCC[C@@]2(C)[C@@H]3CC[C@@]4(C)C[C@]3(CC[C@@H]21)C[C@H]4OCc1cn(-c2ccc(F)cc2)nn1` registered an IC50 against Coagulation factor X [1] of 8.74 µM.

The molecule `CCOC(=O)[C@]1(C)CCC[C@@]2(C)[C@@H]3CC[C@@]4(C)C[C@]3(CC[C@@H]21)C[C@H]4OCc1cn(-c2ccccc2)nn1` showed a concentration for half-maximal inhibition (IC50) against Coagulation factor X [1] of 10.4 µM.

`CCOC(=O)[C@]1(C)CCC[C@@]2(C)[C@@H]3CC[C@@]4(C)C[C@]3(CC[C@@H]21)C/C4=N\NC(=S)Nc1ccc(C(C)C)cc1` gave a half-maximal inhibitory concentration (IC50) at Coagulation factor X [1] of 54.9 µM.

Consider `C#CCO[C@@H]1C[C@]23CC[C@H]4[C@@](C)(CCC[C@@]4(C)C(=O)OCC)[C@@H]2CC[C@@]1(C)C3`, for which, on Coagulation factor X [1], 32.4 µM corresponded to half-maximal inhibition (IC50). Against the preceding molecule, the IC50 is about 1.7-fold lower.

At Coagulation factor X [1], `CCOC(=O)[C@]1(C)CCC[C@@]2(C)[C@@H]3CC[C@@]4(C)C[C@]3(CC[C@@H]21)C/C4=N\N` gave an IC50 of 2.82 µM.

On Coagulation factor X [1], `CCOC(=O)[C@]1(C)CCC[C@@]2(C)[C@@H]3CC[C@@]4(C)C[C@]3(CC[C@@H]21)C/C4=N\NC(=S)Nc1ccccc1C` returned an IC50 of 4.15 µM.

The molecule `CCOC(=O)[C@]1(C)CCC[C@@]2(C)[C@@H]3CC[C@@]4(C)C[C@]3(CC[C@@H]21)C/C4=N\NC(=S)Nc1ccc([N+](=O)[O-])cc1` yielded an IC50 against Coagulation factor X [1] of 8.46 µM.
